In data set [1] the test system is negative symptoms, EPS, depression and internal secretion in patients. As to conditions: cited from earlier work.
The target in data set [2] is T1, serotonin 1A (5-HT1A) receptor (Rattus norvegicus, UniProt P19327).
T1 construct: A crude synaptosome fraction was separated from hippocampus; from tissue; host or cells: hippocampus of 9-10 week-old Wistar rats, crude synaptosome fraction
T1 sequence (P19327 1-422): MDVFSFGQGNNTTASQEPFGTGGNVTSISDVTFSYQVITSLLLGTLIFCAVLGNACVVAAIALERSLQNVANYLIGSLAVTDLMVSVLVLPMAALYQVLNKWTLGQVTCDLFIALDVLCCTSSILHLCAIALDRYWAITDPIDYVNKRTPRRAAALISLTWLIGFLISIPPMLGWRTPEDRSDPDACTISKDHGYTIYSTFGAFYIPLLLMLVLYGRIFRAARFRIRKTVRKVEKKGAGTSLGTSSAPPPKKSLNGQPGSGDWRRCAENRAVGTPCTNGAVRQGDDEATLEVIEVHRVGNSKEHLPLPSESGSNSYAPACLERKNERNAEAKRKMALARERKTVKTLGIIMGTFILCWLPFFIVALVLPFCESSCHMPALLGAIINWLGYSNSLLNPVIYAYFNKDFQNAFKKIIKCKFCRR
As to the kind of experiment: Affinity for serotonin 1A receptor (tritiated 8-OH-DPAT binding). The arrangement: species or system Wistar rats. As to conditions: rat hippocampus crude synaptosomes; [3H]8-OH-DPAT 0.2 nM; 37° C., 12 min. The protocol:
Affinity for serotonin 1A receptor
A specific binding of serotonin 1A (5-HT1A) receptor was tested according to the method described in J. Neurochem. 44, 1685 (1985).
(§1) A crude synaptosome fraction was separated from hippocampus of 9-10 week-old Wistar rats, and suspended in 50 mM Tris-HCl buffer (pH 7.4) containing 1 mM manganese chloride for the experiment. The test compound at several concentrations and tritiated 8-hydroxy-2-dipropyl-aminotetralin(8-OH-DPAT, final concentration 0.2 nM) were added to the synaptosome suspension, and each mixture was incubated at 37° C. for 12 minutes. After the incubation, the mixture was filtered with suction through Whatman GF/B (trade mark) glass filter. The filter was washed with 50 mM Tris-HCl buffer (pH 7.7), and the radioactivity of the filter was measured by a liquid scintillation counter. Non-specific binding was determined in the presence of 10^-5 M serotonin (5-HT). The concentration necessary for 50% inhibition (IC50) was determined on a graph, and inhibition constant (Ki value) was calculated.

The target of data set [3] is T2, dopamine 2 (D2) receptor (Rattus norvegicus, UniProt P61169).
T2 construct: A synaptosome fraction was separated from corpus striatum; from tissue; host or cells: corpus striatum of 9-10 week-old Wistar rats, synaptosome fraction
T2 sequence (P61169 whole entry): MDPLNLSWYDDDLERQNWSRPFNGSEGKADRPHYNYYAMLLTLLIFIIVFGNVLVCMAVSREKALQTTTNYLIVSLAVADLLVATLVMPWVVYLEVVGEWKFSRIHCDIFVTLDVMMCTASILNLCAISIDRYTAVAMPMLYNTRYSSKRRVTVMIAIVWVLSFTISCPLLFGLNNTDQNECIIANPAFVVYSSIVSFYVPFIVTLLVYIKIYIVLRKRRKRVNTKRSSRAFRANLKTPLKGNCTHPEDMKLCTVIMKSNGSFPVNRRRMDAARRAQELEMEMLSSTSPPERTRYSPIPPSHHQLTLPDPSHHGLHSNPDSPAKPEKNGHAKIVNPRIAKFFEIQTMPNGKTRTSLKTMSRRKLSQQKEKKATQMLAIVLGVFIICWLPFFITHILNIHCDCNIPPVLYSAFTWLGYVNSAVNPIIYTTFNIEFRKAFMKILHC
The data set is described as follows: Affinity for dopamine 2 receptor (tritiated spiperone binding). The arrangement: species or system Wistar rats. The settings on record: rat corpus striatum synaptosomes; [3H]spiperone 0.2 nM; 37° C., 20 min. The protocol: Affinity for dopamine 2 receptor
A specific binding of dopamine 2 (D2) receptor was tested according to the method described in Eur. J. Pharmacol. 46, 377 (1977).
A synaptosome fraction was separated from corpus striatum of 9-10 week-old Wistar rats, and suspended in 50 mM Tris-HCl buffer (pH 7.1) containing 120 mM sodium chloride, 5 mM potassium chloride, 2 mM calcium chloride, 1 mM magnesium chloride, 10 μM pargyline and 0.1% ascorbic acid for the experiment.
as §1, with “The” for “A crude synaptosome fraction was separated from hippocampus of 9-10 week-old Wistar rats, and suspended in 50 mM Tris-HCl buffer (pH 7.4) containing 1 mM manganese chloride for the experiment. The”, “spiperone (final” for “8-hydroxy-2-dipropyl-aminotetralin(8-OH-DPAT, final”, “20” for “12”, “10^-4” for “10^-5”, “(±)-sulpiride.” for “serotonin (5-HT).”

Data set [4] addresses T3, serotonin 2 (5-HT2) receptor (Rattus norvegicus, UniProt P14842).
T3 construct: A crude synaptosome fraction was separated from hippocampus; from tissue; host or cells: hippocampus of 9-10 week-old Wistar rats, crude synaptosome fraction
As to the kind of experiment: Affinity for serotonin 2 receptor (tritiated ketanserin binding). The arrangement: species or system Wistar rats. As to conditions: rat hippocampus crude synaptosomes; [3H]ketanserin 0.2 nM; 37° C., 20 min. The protocol: Affinity for serotonin 2 receptor
A specific binding of serotonin 2 (5-HT2) receptor was tested according to the method described in Mol. Pharmacol. 21, 301 (1981).
as §1, with “7.7)” for “7.4) containing 1 mM manganese chloride”, “concentration” for “concentrations”, “ketanserin (final” for “8-hydroxy-2-dipropyl-aminotetralin(8-OH-DPAT, final”, “20” for “12”, “mianserin.” for “serotonin (5-HT).”, “value )” for “value)”

The test system of data set [5] is apomorphine-induced hyperactivity. The data set is described as follows: Anti-apomorphine action (in mouse). The data set is classed as in vivo, male dd mice. As to conditions: oral, 60 min before 0.5 mg/kg s.c. apomorphine hydrochloride, movement lowered by 50%. The protocol: Anti-apomorphine action (in mouse)
Male dd mice at 3 per group were used for the experiment. The test compound was orally administered to the mice, and 60 minutes later, 0.5 mg/kg of apomorphine hydrochloride was subcutaneously administered. the movement for 20 minutes from immediately after the administration of apomorphine hydrochloride was measured using Valimex (Columbus, USA). Each group was tested four times, and the amount of the test compound necessary to lower the movement by 50% than that of a control group was calculated from a graph and taken as ED50.

Data set [6] has as its system ergometrine-induced head-twitches. The data set is described as follows: Anti-ergometrine action (head-twitch). The data set is classed as in vivo, male ddY mice. As to conditions: Mus musculus; oral, 60 min before 20 mg/kg i.p. ergometrine maleate; head-twitch vanished, Probit. The protocol:
Male ddY mice at 12 per group were used for the experiment. The test compound was orally administered to the mice, and 60 minutes later, 20 mg/kg of ergometrine maleate was intraperitoneally administered. The amount of the test compound necessary to vanish the head-twitch reaction for 10 minutes from immediately after the administration of ergometrine maleate was calculated as ED50 value by Probit method.

Data set [7] concerns catalepsy induced by haloperidol. As to conditions: preclinical; cited from earlier work.

The values below come from patent US5532240A, “Condensed thiophene compound and pharmaceutical use thereof” (Yoshitomi Pharmaceutical Industries, Ltd., priority 1991, dated 1996).

Molecules are shown by their SMILES.

What is called Ki is the dissociation constant of the complex between target and ligand, obtained from inhibition or displacement. As a reminder, the ED50 is the dose that gives a 50% effect, or the effect in half of the subjects. A higher ED50 goes with weaker potency.

T3 sequence (P14842 whole entry): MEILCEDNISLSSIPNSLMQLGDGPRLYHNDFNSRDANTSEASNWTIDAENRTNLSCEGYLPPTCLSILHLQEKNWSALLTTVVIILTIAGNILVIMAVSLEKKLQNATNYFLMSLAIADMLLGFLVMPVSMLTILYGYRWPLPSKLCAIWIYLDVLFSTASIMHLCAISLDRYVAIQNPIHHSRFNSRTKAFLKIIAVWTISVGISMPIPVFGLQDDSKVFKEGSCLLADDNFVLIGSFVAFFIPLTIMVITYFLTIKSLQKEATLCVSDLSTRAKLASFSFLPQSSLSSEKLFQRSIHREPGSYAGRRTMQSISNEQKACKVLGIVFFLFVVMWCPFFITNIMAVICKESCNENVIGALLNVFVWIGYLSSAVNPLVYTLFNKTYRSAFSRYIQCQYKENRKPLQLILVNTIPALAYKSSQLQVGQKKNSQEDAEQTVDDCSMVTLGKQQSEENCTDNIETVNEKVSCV

Take `Cc1nc2sccn2c(=O)c1CCN1CCC(=C(c2ccc(F)cc2)c2ccc(F)cc2)CC1` [ritanserin]: in data set [1], the “EPS / side-effects in clinical use” value is given as “reduces the incidence of EPS caused by typical antipsychotic drug therapy” and the “clinical effect on symptoms” value is reported as “ameliorates negative symptoms”.
Regarding `CCc1c(CCN2CCC(c3nsc4cc(F)ccc34)CC2)sc2c1CCN(C(C)=O)C2` [Example 86, 6-acetyl-3-ethyl-2-(2-(4-(6-fluoro-1,2-benzisothiazol-3-yl)piperidin-1-yl)ethyl)-4,5,6,7-tetrahydrothieno[2,3-c]pyridine], the Ki in data set [2] was 590 pM; in data set [3], 170 pM; in data set [4], 92 pM. The ED50 is 0.54 mg/kg in data set [5] and 0.27 mg/kg in data set [6].
Consider `CCc1c(CCN2CCC(c3noc4cc(F)ccc34)CC2)sc2c1CCN(C(C)=O)C2` [Example 73, 6-acetyl-2-(2-(4-(6-fluoro-1,2-benzisoxazol-3-yl)piperidin-1-yl)ethyl)-3-ethyl-4,5,6,7-tetrahydrothieno[2,3-c]pyridine], for which the inhibition constant Ki in data set [2] amounted to 160 pM; in data set [3], 250 pM; in data set [4], 82 pM. Further, the values for the median effective dose (ED50) in data set [5] and in data set [6] were 0.25 mg/kg and 0.35 mg/kg, respectively.
For `CCc1c(CCN2CCC(c3csc4cc(F)ccc34)CC2)sc2c1CCN(C(C)=O)C2` [Example 84, 6-acetyl-3-ethyl-2-(2-(4-(6-fluorobenzo-(b)thiophen-3-yl)piperidin-1-yl)ethyl)-4,5,6,7-tetrahydrothieno[2,3-c]pyridine] the same measures were 130 pM, 210 pM, 180 pM, 0.73 mg/kg and 0.95 mg/kg.
Regarding `CCc1c(CCN2CCC(c3coc4ccc(C)cc34)CC2)sc2c1CCN(C(C)=O)C2` [Example 145, 6-acetyl-3-ethyl-2-(2-(4-(5-methylbenzo(b)-furan-3-yl)piperidin-1-yl)ethyl)-4,5,6,7-tetrahydrothieno[2,3-c]pyridine], the Ki came out at 140 pM in data set [2], 3800 pM in data set [3] and 2800 pM in data set [4].
On the same counts, the results for `O=C1CCCc2sc(CCN3CCC(c4coc5cc(F)ccc45)CC3)cc2N1` [Example 147, 2-(2-(4-(6-fluorobenzo(b)furan-3-yl)piperidin-1-yl)ethyl)-4,6,7,8-tetrahydro-5H-thieno[3,2-b]azepin-5-one] are 320 pM, 400 pM and 860 pM.
`O=C1CC2(CCCC2)CC(=O)N1CCCCN1CCN(c2ncccn2)CC1` [buspirone]: the “clinical effect on symptoms” value in data set [1] was “improved the depression and EPS caused by haloperidol therapy”. Also, the “effect on catalepsy induced by haloperidol” value in data set [7] is given as “reverse catalepsy induced by haloperidol”.
Turning to `CC(=O)N1CCc2c(sc(CCN3CCC(c4noc5cc(F)ccc45)CC3)c2C)C1` [Example 42, 6-acetyl-2-(2-(4-(6-fluoro-1,2-benzisoxazol-3-yl)piperidin-1-yl)ethyl)-4,5,6,7-tetrahydro-3-methylthieno[2,3-c]pyridine], the Ki in data set [2] was determined as 1100 pM; in data set [3] it was 230 pM; in data set [4] it was 200 pM. The ED50 in data set [5] worked out at 0.2 mg/kg; in data set [6], 0.19 mg/kg.
Turning to `CC(=O)N1CCc2c(sc(C)c2CCN2CCC(c3csc4cc(F)ccc34)CC2)C1` [Example 53, 6-acetyl-3-(2-(4-(6-fluorobenzo(b)thiophen-3-yl)piperidin-1-yl)ethyl)-4,5,6,7-tetrahydro-2-methylthieno[2,3-c]pyridine], the Ki turned out to be 3700 pM in data set [2], 150 pM in data set [3] and 43 pM in data set [4].
On the same counts, the results for `CCc1sc2c(c1CCN1CCC(c3noc4cc(F)ccc34)CC1)CCN(C(C)=O)C2` [Example 32, 6-acetyl-2-ethyl-3-(2-(4-(6-fluoro-1,2-benzisoxazol-3-yl)piperidin-1-yl)ethyl)-4,5,6,7-tetrahydrothieno[2,3-c]pyridine] are 54000 pM, 100 pM and 86 pM.
Consider `O=C1CCCc2sc(CCN3CCC(c4noc5cc(F)ccc45)CC3)cc2N1` [Example 15, 2-(2-(4-(6-fluoro-1,2-benzisoxazol-3-yl)piperidin-1-yl)ethyl)-4,6,7,8-tetrahydro-5H-thieno[3,2-b]azepin-5-one], for which the figures for the inhibition constant Ki in data set [2], in data set [3] and in data set [4] were 1600 pM, 65 pM and 320 pM, respectively. Also, the median effective dose (ED50) in data set [5] was found to be 0.063 mg/kg; in data set [6], 0.089 mg/kg.
Consider `CC(=O)N1CCc2cc(C(=O)CCCN3CCC(c4noc5cc(F)ccc45)CC3)sc2C1` [Example 43, 6-acetyl-2-(4-(4-(6-fluoro-1,2-benzisoxazol-3-yl)piperidin-1-yl)butyryl)-4,5,6,7-tetrahydrothieno[2,3-c]pyridine], for which the values for the Ki in data set [2], in data set [3] and in data set [4] were 87000 pM, 1500 pM and 110 pM, respectively.
`CCc1c(CCN2CCC(c3coc4cc(F)ccc34)CC2)sc2c1CCN(C(C)=O)C2` [Example 85, 6-acetate-3-ethyl-2-(2-(4-(6-fluorobenzo(b)furan-3-yl)piperidin-1-yl)ethyl)-4,5,6,7-tetrahydro-thieno[2,3-c]pyridine]: the Ki came to 310 pM in data set [2], 520 pM in data set [3] and 380 pM in data set [4]. Also, the 50% effective dose (ED50) was found to be 0.79 mg/kg in data set [5] and 0.52 mg/kg in data set [6].
On the same counts, the results for `Cc1sc2c(c1CCN1CCC(c3noc4cc(F)ccc34)CC1)NC(=O)CCC2` [Example 22, 3-(2-(4-(6-fluoro-1,2-benzoxazolyl-3-yl)piperidin-1-yl)ethyl)-2-methyl-4,6,7,8-tetrahydro-5H-thieno[3,2-b]azepin-5-one] are 15000 pM, 520 pM, 210 pM, 1.1 mg/kg and 1.5 mg/kg.
Consider `Cc1ccc2occ(C3CCN(CCc4cc5c(s4)CCCC(=O)N5)CC3)c2c1` [Example 148, 2-(2-(4-(5-methylbenzo(b)furan-3-yl)piperidin-1-yl)ethyl)-4,6,7,8-tetrahydro-5H-thieno[3,2-b]azepin-5-one], for which the results for the inhibitory constant (Ki) in data set [2], in data set [3] and in data set [4] were 240 pM, 2300 pM and 8600 pM, respectively.
